According to PubChem BioAssay (NCI):
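Cells were grown in 96-well plates and exposed to each compound for 48 hours at five concentrations; endpoints were interpolated linearly between bracketing concentrations, or set to the highest concentration if not reached. TGI: total growth inhibition.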

Assays:
Test in all cases: NCI-60 cell line screen, 48 h
[1] = test system: A549 NSCLC
[2] = test system: PC-3 prostate
[3] = test system: DU-145 prostate
[4] = test system: MALME-3M melanoma
[5] = test system: RXF 393 renal
[6] = test system: SK-MEL-28 melanoma
[7] = test system: IGROV1 ovarian
[8] = test system: SF-268 CNS
[9] = test system: LOX IMVI melanoma
[10] = test system: EKVX NSCLC
[11] = test system: TK-10 renal
[12] = test system: NCI/ADR-RES ovarian
[13] = test system: MDA-MB-435
[14] = test system: SK-OV-3 ovarian
[15] = test system: OVCAR-3 ovarian
[16] = test system: NCI-H226 lung
[17] = test system: OVCAR-5 ovarian
[18] = test system: SK-MEL-2 melanoma
[19] = test system: MOLT-4 leukemia
[20] = test system: CCRF-CEM leukemia
[21] = test system: RPMI-8226 leukemia
[22] = test system: SNB-19 CNS
[23] = test system: SF-295 CNS
[24] = test system: SR leukemia
[25] = test system: SK-MEL-5 melanoma
[26] = test system: HS 578T breast
[27] = test system: SNB-75 CNS
[28] = test system: 786-0 renal
[29] = test system: HOP-92 NSCLC
[30] = test system: MCF7 breast
[31] = test system: K-562 leukemia
[32] = test system: UACC-62 melanoma
[33] = test system: HL-60(TB) leukemia
[34] = test system: ACHN renal
[35] = test system: T-47D breast
[36] = test system: SF-539 CNS
[37] = test system: M14 melanoma
[38] = test system: NCI-H23 lung
[39] = test system: HCC-2998 colon
[40] = test system: SN12C renal
[41] = test system: CAKI-1 renal
[42] = test system: OVCAR-8 ovarian
[43] = test system: HCT-15 colon
[44] = test system: COLO 205 colon
[45] = test system: MDA-MB-231 breast
[46] = test system: OVCAR-4 ovarian
[47] = test system: KM12 colon
[48] = test system: U251 CNS
[49] = test system: UO-31 renal
[50] = test system: MDA-N
[51] = test system: HT29 colon
[52] = test system: UACC-257 melanoma
[53] = test system: SW-620 colon
[54] = test system: NCI-H460 lung
[55] = test system: HCT-116 colon
[56] = test system: HOP-62 NSCLC

**Q.** How did the TGI [1] turn out when `CNC(=S)N(C1CCCCC1)C1CCCCC1` was run?
**A.** The TGI was > 100 µM.

**Q.** What about the TGI [2] of the same compound?
**A.** The TGI was > 100 µM.

**Q.** And the TGI [3]?
**A.** The TGI was > 100 µM.

**Q.** And the TGI [4]?
**A.** Its TGI is > 100 µM.

**Q.** What about the TGI [5] of the same compound?
**A.** Its TGI is > 100 µM.

**Q.** And the TGI [6]?
**A.** Its TGI is > 100 µM.

**Q.** What about the TGI [7] of the same compound?
**A.** The TGI was > 100 µM.

**Q.** And the TGI [8]?
**A.** The TGI was > 100 µM.

**Q.** What about the TGI [9] of the same compound?
**A.** The TGI was > 100 µM.

**Q.** And the TGI [10]?
**A.** Its TGI is > 100 µM.

**Q.** And the TGI [11]?
**A.** Its TGI is > 100 µM.

**Q.** What about the TGI [12] of the same compound?
**A.** The TGI was > 100 µM.

**Q.** And the TGI [13]?
**A.** Its TGI is > 100 µM.

**Q.** What about the TGI [14] of the same compound?
**A.** The TGI was > 100 µM.

**Q.** What about the TGI [15] of the same compound?
**A.** The TGI was > 100 µM.

**Q.** And the TGI [16]?
**A.** Its TGI is > 100 µM.

**Q.** And the TGI [17]?
**A.** The TGI was > 100 µM.

**Q.** What about the TGI [18] of the same compound?
**A.** The TGI was > 100 µM.

**Q.** And the TGI [19]?
**A.** The TGI was > 100 µM.

**Q.** And the TGI [20]?
**A.** Its TGI is > 100 µM.

**Q.** What about the TGI [21] of the same compound?
**A.** Its TGI is > 100 µM.

**Q.** And the TGI [22]?
**A.** The TGI was > 100 µM.

**Q.** What about the TGI [23] of the same compound?
**A.** The TGI was > 100 µM.

**Q.** And the TGI [24]?
**A.** The TGI was > 100 µM.

**Q.** What about the TGI [25] of the same compound?
**A.** Its TGI is > 100 µM.

**Q.** What about the TGI [26] of the same compound?
**A.** The TGI was 98.8 µM.

**Q.** And the TGI [27]?
**A.** Its TGI is > 100 µM.

**Q.** And the TGI [28]?
**A.** The TGI was > 100 µM.

**Q.** And the TGI [29]?
**A.** The TGI was > 100 µM.

**Q.** What about the TGI [30] of the same compound?
**A.** The TGI was > 100 µM.

**Q.** And the TGI [31]?
**A.** Its TGI is > 100 µM.

**Q.** And the TGI [32]?
**A.** Its TGI is > 100 µM.

**Q.** What about the TGI [33] of the same compound?
**A.** The TGI was > 100 µM.

**Q.** What about the TGI [34] of the same compound?
**A.** The TGI was > 100 µM.

**Q.** What about the TGI [35] of the same compound?
**A.** Its TGI is > 100 µM.

**Q.** What about the TGI [36] of the same compound?
**A.** Its TGI is > 100 µM.

**Q.** What about the TGI [37] of the same compound?
**A.** Its TGI is > 100 µM.

**Q.** And the TGI [38]?
**A.** The TGI was > 100 µM.

**Q.** And the TGI [39]?
**A.** Its TGI is > 100 µM.

**Q.** What about the TGI [40] of the same compound?
**A.** The TGI was > 100 µM.

**Q.** What about the TGI [41] of the same compound?
**A.** Its TGI is > 100 µM.

**Q.** And the TGI [42]?
**A.** Its TGI is > 100 µM.

**Q.** What about the TGI [43] of the same compound?
**A.** Its TGI is > 100 µM.

**Q.** And the TGI [44]?
**A.** The TGI was > 100 µM.

**Q.** And the TGI [45]?
**A.** Its TGI is > 100 µM.

**Q.** And the TGI [46]?
**A.** Its TGI is > 100 µM.

**Q.** And the TGI [47]?
**A.** Its TGI is > 100 µM.

**Q.** What about the TGI [48] of the same compound?
**A.** Its TGI is > 100 µM.

**Q.** What about the TGI [49] of the same compound?
**A.** The TGI was > 100 µM.

**Q.** What about the TGI [50] of the same compound?
**A.** The TGI was > 100 µM.

**Q.** And the TGI [51]?
**A.** Its TGI is > 100 µM.

**Q.** And the TGI [52]?
**A.** The TGI was > 100 µM.

**Q.** And the TGI [53]?
**A.** Its TGI is > 100 µM.

**Q.** And the TGI [54]?
**A.** Its TGI is > 100 µM.

**Q.** And the TGI [55]?
**A.** The TGI was > 100 µM.

**Q.** And the TGI [56]?
**A.** The TGI was > 100 µM.
